From the NIST ThermoML archive (doi:10.1016/j.jct.2012.11.010)

Settings: Liquid; for viscosity: 101.33 kPa, Falling or rolling sphere viscometry; for mass density: Vibrating tube method

CCCC[N+]1(C)CCCC1.FC(F)(F)C(F)(F)[P-](F)(F)(F)(C(F)(F)C(F)(F)F)C(F)(F)C(F)(F)F
Settings	viscosity [mPa·s]
293.15 K	333.79
303.15 K	179.86
313.15 K	106
323.15 K	68.08
333.15 K	45.37
343.15 K	31.9
353.15 K	23.42
363.15 K	17.58
373.15 K	13.71

Settings	mass density [kg/m3]
293.17 K, 5000 kPa	1606.7
293.17 K, 10000 kPa	1610.2
293.17 K, 15000 kPa	1614.1
293.17 K, 20000 kPa	1618
293.17 K, 25000 kPa	1621.7
293.18 K, 2500 kPa	1604.9
293.19 K, 100 kPa	1603.7
293.19 K, 500 kPa	1604
293.19 K, 1000 kPa	1603.9
303.18 K, 100 kPa	1592.8
303.19 K, 1000 kPa	1593.1
303.2 K, 500 kPa	1593.1
303.25 K, 10000 kPa	1599.5
303.25 K, 20000 kPa	1607.6
303.25 K, 25000 kPa	1611.4
303.26 K, 2500 kPa	1593.9
303.26 K, 5000 kPa	1595.8
303.26 K, 15000 kPa	1603.6
313.19 K, 10000 kPa	1589.1
313.2 K, 100 kPa	1581.9
313.2 K, 500 kPa	1582.3
313.2 K, 1000 kPa	1582.3
313.2 K, 5000 kPa	1585.3
313.2 K, 20000 kPa	1597.4
313.21 K, 2500 kPa	1583.3
313.21 K, 15000 kPa	1593.3
313.21 K, 25000 kPa	1601.4
323.14 K, 100 kPa	1571
323.14 K, 500 kPa	1571.4
323.14 K, 2500 kPa	1572.5
323.14 K, 10000 kPa	1578.5
323.14 K, 15000 kPa	1582.9
323.14 K, 20000 kPa	1587.2
323.14 K, 25000 kPa	1591.3
323.15 K, 1000 kPa	1571.5
323.15 K, 5000 kPa	1574.6
333.17 K, 100 kPa	1560.4
333.17 K, 500 kPa	1560.8
333.17 K, 1000 kPa	1560.9
333.17 K, 5000 kPa	1564.2
333.18 K, 2500 kPa	1562
333.18 K, 10000 kPa	1568.2
333.18 K, 15000 kPa	1572.7
333.18 K, 20000 kPa	1577.2
333.18 K, 25000 kPa	1581.4
343.16 K, 100 kPa	1549.9
343.17 K, 500 kPa	1550.4
343.18 K, 1000 kPa	1550.5
343.19 K, 2500 kPa	1551.6
343.2 K, 5000 kPa	1553.9
343.2 K, 10000 kPa	1558.1
343.2 K, 15000 kPa	1562.8
343.2 K, 20000 kPa	1567.4
343.21 K, 25000 kPa	1571.7
353.17 K, 100 kPa	1539.5
353.17 K, 500 kPa	1540.1
353.17 K, 5000 kPa	1543.8
353.18 K, 1000 kPa	1540.3
353.18 K, 2500 kPa	1541.4
353.18 K, 15000 kPa	1553
353.19 K, 10000 kPa	1548.2
353.19 K, 20000 kPa	1557.7
353.19 K, 25000 kPa	1562.2

CCCCCCCCCCCCCC[P+](CCCCCC)(CCCCCC)CCCCCC.FC(F)(F)C(F)(F)[P-](F)(F)(F)(C(F)(F)C(F)(F)F)C(F)(F)C(F)(F)F
Settings	viscosity [mPa·s]
293.15 K	470.83
303.15 K	259.01
313.15 K	155.29
323.15 K	94.33
333.15 K	65
343.15 K	42.67
353.15 K	30.35
363.15 K	22.81
373.15 K	17.53

Settings	mass density [kg/m3]
293.2 K, 100 kPa	1185.7
293.21 K, 500 kPa	1185.9
293.22 K, 1000 kPa	1185.9
293.22 K, 2500 kPa	1186.7
293.22 K, 5000 kPa	1188.3
293.22 K, 10000 kPa	1191.3
293.22 K, 25000 kPa	1201.2
293.23 K, 15000 kPa	1194.7
293.23 K, 20000 kPa	1198
303.19 K, 100 kPa	1177.4
303.19 K, 500 kPa	1177.7
303.19 K, 1000 kPa	1177.7
303.21 K, 2500 kPa	1178.5
303.22 K, 5000 kPa	1180.1
303.22 K, 10000 kPa	1183.3
303.23 K, 15000 kPa	1186.8
303.23 K, 20000 kPa	1190.2
303.25 K, 25000 kPa	1193.5
313.15 K, 100 kPa	1169.1
313.17 K, 500 kPa	1169.4
313.17 K, 1000 kPa	1169.4
313.17 K, 2500 kPa	1170.3
313.17 K, 5000 kPa	1172
313.17 K, 10000 kPa	1175.4
313.17 K, 15000 kPa	1179.1
313.17 K, 20000 kPa	1182.6
313.17 K, 25000 kPa	1186
323.14 K, 15000 kPa	1171.1
323.15 K, 500 kPa	1161
323.15 K, 1000 kPa	1161.1
323.15 K, 5000 kPa	1163.8
323.15 K, 10000 kPa	1167.3
323.15 K, 20000 kPa	1174.7
323.16 K, 100 kPa	1160.6
323.16 K, 2500 kPa	1162
323.16 K, 25000 kPa	1178.3
333.11 K, 100 kPa	1152.6
333.12 K, 500 kPa	1152.9
333.12 K, 1000 kPa	1153
333.12 K, 2500 kPa	1154
333.12 K, 10000 kPa	1159.5
333.13 K, 5000 kPa	1156.8
333.13 K, 15000 kPa	1163.4
333.13 K, 25000 kPa	1171
333.14 K, 20000 kPa	1167.2
343.07 K, 500 kPa	1145
343.07 K, 1000 kPa	1145.1
343.08 K, 2500 kPa	1146.1
343.08 K, 10000 kPa	1151.9
343.08 K, 15000 kPa	1156
343.09 K, 5000 kPa	1148.1
343.09 K, 25000 kPa	1163.7
343.1 K, 20000 kPa	1159.9
343.13 K, 100 kPa	1144.5
353.2 K, 100 kPa	1136.5
353.22 K, 500 kPa	1137
353.22 K, 2500 kPa	1138.2
353.22 K, 5000 kPa	1140.2
353.23 K, 1000 kPa	1137.1
353.23 K, 10000 kPa	1144.2
353.23 K, 15000 kPa	1148.4
353.25 K, 20000 kPa	1152.5
353.25 K, 25000 kPa	1156.4
